Assay [1] concerns Vero cells. The conditions noted are these: CC50 Vero cells / MIC Mtb H37Rv.
Assay [2] concerns M. fortuitum ATCC 6841. Description: Antimycobacterial broth microdilution MIC, non-tuberculous mycobacteria. The conditions noted are these: 48 h. It is filed as cell-based.
The subject of assay [3] is M. chelonae ATCC 35752. The description is as above. It is filed as cell-based. To be noted: 48 h.

The record followed here is publication PMC9592870 (Molecular Diversity, 2022).

Each structure is given as a SMILES string.

As to `COC(=O)c1cc(-c2cccc(NC(=O)Nc3ccc(F)cc3)c2)on1` [4j, Methyl 5-(3-(3-(4-fluorophenyl)ureido)phenyl)isoxazole-3-carboxylate], the “SI selectivity index (CC50/MIC)” value in assay [1] is given as more than 200.
On the same count and under the same terms, as for `COC(=O)c1cc(-c2cccc(NC(=O)Nc3cc(OC)ccc3OC)c2)on1` [4w, Methyl 5-(3-(3-(2,5-dimethoxyphenyl)ureido)phenyl)isoxazole-3-carboxylate], the figure is less than 20; as for `COC(=O)c1cc(-c2cccc(NC(=O)Nc3ccc(C(F)(F)F)cc3)c2)on1` [4n, Methyl 5-(3-(3-(4-(trifluoromethyl)phenyl)ureido)phenyl)isoxazole-3-carboxylate], more than 50.
Take `COC(=O)c1cc(-c2cccc(NC(=S)Nc3ccc(F)cc3F)c2)on1` [5k, Methyl 5-(3-(3-(2,4-difluorophenyl)thioureido)phenyl)isoxazole-3-carboxylate]: the “MIC M. fortuitum ATCC 6841” value in assay [2] is “weaker inhibition”. Besides, the “MIC M. chelonae ATCC 35752” value in assay [3] was “weaker inhibition”.
Take `COC(=O)c1cc(-c2cccc(NC(=S)Nc3ccc(C#N)cc3)c2)on1` [5i, Methyl 5-(3-(3-(4-cyanophenyl)thioureido)phenyl)isoxazole-3-carboxylate]: the “MIC M. fortuitum ATCC 6841” value in assay [2] was “weaker inhibition”. For the same compound, the “MIC M. chelonae ATCC 35752” value in assay [3] was “weaker inhibition”.
With `COC(=O)c1cc(-c2ccc(NC(=O)Nc3ccc(Cl)c(Cl)c3)cc2)on1` [4tb, Methyl 5-(4-(3-(3,4-dichlorophenyl)ureido)phenyl)isoxazole-3-carboxylate], the “SI selectivity index (CC50/MIC)” value in assay [1] is on record as more than 80.
Turning to `COC(=O)c1cc(-c2cccc(NC(=O)Nc3ccc(Cl)cc3Cl)c2)on1` [4r, Methyl 5-(3-(3-(2,4-dichlorophenyl)ureido)phenyl)isoxazole-3-carboxylate], in assay [1], the “SI selectivity index (CC50/MIC)” value is more than 50.
Take `COC(=O)c1cc(-c2cccc(NC(=S)Nc3ccc(Cl)cc3)c2)on1` [5f, Methyl 5-(3-(3-(4-chlorophenyl)thioureido)phenyl)isoxazole-3-carboxylate]: in assay [1], the “SI selectivity index (CC50/MIC)” value is reported as more than 50.
Regarding `COC(=O)c1cc(-c2cccc(NC(=S)Nc3ccc(F)c(Cl)c3)c2)on1` [5m, Methyl 5-(3-(3-(3-chloro-4-fluorophenyl)thioureido)phenyl)isoxazole-3-carboxylate], the “MIC M. fortuitum ATCC 6841” value in assay [2] is listed as “weaker inhibition”. In addition, in assay [3], the “MIC M. chelonae ATCC 35752” value was “weaker inhibition”.
For the compound `COC(=O)c1cc(-c2cccc(NC(=O)Nc3ccccc3OC)c2)on1` [4d, Methyl 5-(3-(3-(2-methoxyphenyl)ureido)phenyl)isoxazole-3-carboxylate], the “SI selectivity index (CC50/MIC)” value in assay [1] is on record as less than 20.
